Experimental data: ChEMBL document CHEMBL3991601, “The target landscape of clinical kinase drugs” (Science, 2017)
Activity calls are given as the source filed them.

Legend:
[1] = biological target: Receptor-interacting serine/threonine-protein kinase 3 (Homo sapiens, UniProt Q9Y572)
[2] = biological target: Dual specificity mitogen-activated protein kinase kinase 1 (Homo sapiens, UniProt Q02750)
[3] = biological target: T1, Serine/threonine-protein kinase Nek1 (Homo sapiens, UniProt Q96PY6)
T1 sequence (Q96PY6 whole entry): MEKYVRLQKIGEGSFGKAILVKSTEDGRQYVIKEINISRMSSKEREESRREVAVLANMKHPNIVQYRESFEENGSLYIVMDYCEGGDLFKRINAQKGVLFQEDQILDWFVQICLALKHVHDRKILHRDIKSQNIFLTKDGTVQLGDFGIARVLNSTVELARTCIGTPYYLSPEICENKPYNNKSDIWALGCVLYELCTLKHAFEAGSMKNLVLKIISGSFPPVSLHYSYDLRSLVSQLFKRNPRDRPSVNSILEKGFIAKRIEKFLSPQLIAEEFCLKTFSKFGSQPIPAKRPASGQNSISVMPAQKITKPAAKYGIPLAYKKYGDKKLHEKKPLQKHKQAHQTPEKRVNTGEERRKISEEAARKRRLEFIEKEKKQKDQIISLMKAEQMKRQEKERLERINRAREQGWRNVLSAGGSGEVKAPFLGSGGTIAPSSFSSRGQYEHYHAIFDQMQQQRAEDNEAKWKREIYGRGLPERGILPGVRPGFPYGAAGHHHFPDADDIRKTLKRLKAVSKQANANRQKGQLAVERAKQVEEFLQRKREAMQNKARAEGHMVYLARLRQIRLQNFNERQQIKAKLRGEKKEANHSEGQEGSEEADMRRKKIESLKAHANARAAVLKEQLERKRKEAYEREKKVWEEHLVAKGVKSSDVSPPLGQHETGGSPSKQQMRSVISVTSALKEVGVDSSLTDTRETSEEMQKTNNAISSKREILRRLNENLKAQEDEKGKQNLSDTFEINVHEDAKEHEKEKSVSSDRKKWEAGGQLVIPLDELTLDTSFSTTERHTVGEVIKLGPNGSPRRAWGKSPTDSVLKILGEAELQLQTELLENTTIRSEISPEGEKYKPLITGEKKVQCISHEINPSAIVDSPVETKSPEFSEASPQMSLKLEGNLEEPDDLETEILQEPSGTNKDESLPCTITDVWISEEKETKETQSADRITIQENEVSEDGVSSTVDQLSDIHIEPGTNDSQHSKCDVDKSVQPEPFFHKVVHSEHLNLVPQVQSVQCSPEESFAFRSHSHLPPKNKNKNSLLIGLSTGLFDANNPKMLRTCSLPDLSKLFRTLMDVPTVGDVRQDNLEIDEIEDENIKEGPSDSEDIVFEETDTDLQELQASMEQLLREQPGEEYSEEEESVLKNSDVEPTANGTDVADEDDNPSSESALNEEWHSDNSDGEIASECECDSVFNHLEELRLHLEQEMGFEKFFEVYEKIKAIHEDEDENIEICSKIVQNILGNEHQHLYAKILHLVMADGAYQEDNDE

[4] = biological target: Adenylate kinase 2, mitochondrial (Homo sapiens, UniProt P54819)
[5] = biological target: Chromodomain-helicase-DNA-binding protein 4 (Homo sapiens, UniProt Q14839)
[6] = biological target: Ribosomal protein S6 kinase beta-1 (Homo sapiens, UniProt P23443)
Ephrin type-A receptor 7 = Ephrin type-A receptor 7 (Homo sapiens, UniProt Q15375)
[7] = biological target: TRAF2 and NCK-interacting protein kinase (Homo sapiens, UniProt Q9UKE5)
[8] = biological target: Serine/threonine-protein kinase PAK 2 (Homo sapiens, UniProt Q13177)
Ephrin type-A receptor 5 = Ephrin type-A receptor 5 (Homo sapiens, UniProt P54756)
[9] = biological target: T2, Serine/threonine-protein kinase Nek2 (Homo sapiens, UniProt P51955)
T2 sequence (P51955 whole entry): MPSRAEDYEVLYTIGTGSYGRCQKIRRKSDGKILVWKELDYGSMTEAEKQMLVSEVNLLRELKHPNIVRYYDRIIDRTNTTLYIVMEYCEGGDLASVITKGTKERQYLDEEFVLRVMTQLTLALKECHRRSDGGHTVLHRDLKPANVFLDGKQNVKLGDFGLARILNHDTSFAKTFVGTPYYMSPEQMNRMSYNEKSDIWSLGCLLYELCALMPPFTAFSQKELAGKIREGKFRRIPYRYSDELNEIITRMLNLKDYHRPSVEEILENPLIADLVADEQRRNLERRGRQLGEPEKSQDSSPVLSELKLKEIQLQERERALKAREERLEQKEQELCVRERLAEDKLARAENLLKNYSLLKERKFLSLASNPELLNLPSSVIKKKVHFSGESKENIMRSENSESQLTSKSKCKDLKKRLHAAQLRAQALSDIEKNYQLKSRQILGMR

Adenosine kinase = Adenosine kinase (Homo sapiens, UniProt P55263)
Septin-9 = biological target: T3, Septin-9 (Homo sapiens, UniProt Q9UHD8)
T3 sequence (Q9UHD8 whole entry): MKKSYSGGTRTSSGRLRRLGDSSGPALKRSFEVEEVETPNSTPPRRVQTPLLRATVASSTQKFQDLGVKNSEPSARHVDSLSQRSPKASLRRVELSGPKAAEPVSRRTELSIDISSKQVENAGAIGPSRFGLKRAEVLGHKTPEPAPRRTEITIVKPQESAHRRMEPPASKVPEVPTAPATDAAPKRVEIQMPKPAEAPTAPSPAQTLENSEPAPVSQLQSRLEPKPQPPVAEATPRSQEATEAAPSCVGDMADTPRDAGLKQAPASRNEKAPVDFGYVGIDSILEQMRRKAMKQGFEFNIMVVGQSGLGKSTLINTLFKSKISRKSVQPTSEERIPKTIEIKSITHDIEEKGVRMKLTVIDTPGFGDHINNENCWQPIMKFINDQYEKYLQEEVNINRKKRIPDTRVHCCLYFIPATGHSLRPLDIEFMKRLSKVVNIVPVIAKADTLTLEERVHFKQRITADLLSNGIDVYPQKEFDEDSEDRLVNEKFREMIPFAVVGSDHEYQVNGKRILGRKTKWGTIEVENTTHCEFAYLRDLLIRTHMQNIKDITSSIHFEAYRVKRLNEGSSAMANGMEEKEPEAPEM

[10] = biological target: Inosine-5'-monophosphate dehydrogenase 2 (Homo sapiens, UniProt P12268)
Note: in the data inactive means no Kd found up to 30 µM.

TRAF2 and NCK-interacting protein kinase, sequence (Q9UKE5 whole entry): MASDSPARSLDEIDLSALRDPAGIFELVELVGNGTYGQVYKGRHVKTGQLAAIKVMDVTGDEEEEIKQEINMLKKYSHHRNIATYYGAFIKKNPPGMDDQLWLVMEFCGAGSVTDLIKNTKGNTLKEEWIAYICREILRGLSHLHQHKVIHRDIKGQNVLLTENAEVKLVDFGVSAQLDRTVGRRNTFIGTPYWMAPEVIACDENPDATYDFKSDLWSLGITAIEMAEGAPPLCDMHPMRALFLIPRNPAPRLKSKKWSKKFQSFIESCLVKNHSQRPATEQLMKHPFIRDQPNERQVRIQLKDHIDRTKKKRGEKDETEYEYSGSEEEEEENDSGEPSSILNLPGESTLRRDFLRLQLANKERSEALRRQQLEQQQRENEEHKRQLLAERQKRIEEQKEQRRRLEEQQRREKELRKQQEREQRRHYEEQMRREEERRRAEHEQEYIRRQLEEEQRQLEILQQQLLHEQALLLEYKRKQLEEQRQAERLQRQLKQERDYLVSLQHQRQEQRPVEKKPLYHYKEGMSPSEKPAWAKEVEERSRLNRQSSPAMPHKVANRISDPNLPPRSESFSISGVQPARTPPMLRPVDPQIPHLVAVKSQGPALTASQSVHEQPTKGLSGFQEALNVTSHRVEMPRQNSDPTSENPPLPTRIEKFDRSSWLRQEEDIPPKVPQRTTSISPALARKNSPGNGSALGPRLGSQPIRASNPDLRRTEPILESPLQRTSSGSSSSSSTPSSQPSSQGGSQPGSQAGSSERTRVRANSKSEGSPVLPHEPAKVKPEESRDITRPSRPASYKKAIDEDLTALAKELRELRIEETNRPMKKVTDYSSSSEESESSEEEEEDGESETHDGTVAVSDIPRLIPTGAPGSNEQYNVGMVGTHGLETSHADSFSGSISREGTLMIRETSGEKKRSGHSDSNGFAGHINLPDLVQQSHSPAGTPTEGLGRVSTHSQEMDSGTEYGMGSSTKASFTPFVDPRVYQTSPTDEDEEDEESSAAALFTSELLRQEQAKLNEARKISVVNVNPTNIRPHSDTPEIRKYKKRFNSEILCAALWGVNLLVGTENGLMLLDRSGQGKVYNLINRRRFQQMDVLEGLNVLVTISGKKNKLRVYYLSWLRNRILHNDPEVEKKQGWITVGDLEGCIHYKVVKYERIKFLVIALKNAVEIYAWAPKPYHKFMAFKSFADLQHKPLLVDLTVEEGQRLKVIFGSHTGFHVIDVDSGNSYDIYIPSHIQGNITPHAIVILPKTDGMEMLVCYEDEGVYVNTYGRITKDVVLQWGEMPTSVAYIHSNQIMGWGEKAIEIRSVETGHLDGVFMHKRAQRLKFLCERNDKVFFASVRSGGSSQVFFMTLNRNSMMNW
Ephrin type-A receptor 7, sequence (Q15375 whole entry): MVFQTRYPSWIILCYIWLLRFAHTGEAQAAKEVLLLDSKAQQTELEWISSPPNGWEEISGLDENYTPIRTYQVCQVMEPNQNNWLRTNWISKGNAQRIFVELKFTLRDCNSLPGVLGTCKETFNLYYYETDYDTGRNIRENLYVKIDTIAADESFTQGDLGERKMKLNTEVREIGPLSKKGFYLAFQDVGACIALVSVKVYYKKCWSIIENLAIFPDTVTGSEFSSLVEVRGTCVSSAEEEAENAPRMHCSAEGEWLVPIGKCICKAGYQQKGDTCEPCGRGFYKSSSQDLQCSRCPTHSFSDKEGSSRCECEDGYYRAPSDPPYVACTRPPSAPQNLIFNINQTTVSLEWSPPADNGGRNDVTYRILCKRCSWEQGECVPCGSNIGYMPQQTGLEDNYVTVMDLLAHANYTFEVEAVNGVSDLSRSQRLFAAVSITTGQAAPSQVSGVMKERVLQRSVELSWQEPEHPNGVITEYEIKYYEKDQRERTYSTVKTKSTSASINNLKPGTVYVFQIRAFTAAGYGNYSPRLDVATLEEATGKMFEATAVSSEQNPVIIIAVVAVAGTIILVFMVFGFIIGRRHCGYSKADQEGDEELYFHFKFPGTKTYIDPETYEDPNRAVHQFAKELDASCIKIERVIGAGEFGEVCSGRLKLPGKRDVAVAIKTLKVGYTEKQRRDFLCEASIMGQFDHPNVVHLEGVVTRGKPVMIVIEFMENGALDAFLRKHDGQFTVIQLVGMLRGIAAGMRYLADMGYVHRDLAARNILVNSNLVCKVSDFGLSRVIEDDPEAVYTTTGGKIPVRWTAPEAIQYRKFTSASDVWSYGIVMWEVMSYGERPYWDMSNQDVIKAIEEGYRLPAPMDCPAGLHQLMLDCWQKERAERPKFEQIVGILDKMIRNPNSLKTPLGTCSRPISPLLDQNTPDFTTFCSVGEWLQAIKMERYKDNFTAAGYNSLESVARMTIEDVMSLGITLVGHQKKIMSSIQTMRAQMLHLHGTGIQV
Serine/threonine-protein kinase PAK 2, sequence (Q13177 whole entry): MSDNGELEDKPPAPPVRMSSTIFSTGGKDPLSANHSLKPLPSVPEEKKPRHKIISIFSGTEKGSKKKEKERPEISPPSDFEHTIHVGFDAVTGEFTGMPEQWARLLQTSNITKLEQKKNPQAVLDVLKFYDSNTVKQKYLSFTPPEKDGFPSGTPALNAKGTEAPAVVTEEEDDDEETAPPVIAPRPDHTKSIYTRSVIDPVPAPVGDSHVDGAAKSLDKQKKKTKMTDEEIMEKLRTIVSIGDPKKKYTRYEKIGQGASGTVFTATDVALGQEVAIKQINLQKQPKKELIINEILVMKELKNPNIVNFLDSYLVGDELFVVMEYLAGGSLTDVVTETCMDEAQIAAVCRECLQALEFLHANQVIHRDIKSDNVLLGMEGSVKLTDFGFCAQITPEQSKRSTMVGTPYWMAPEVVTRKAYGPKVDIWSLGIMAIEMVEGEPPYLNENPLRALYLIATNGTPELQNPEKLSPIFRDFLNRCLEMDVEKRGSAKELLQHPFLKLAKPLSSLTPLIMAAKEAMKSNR
Receptor-interacting serine/threonine-protein kinase 3, sequence (Q9Y572 whole entry): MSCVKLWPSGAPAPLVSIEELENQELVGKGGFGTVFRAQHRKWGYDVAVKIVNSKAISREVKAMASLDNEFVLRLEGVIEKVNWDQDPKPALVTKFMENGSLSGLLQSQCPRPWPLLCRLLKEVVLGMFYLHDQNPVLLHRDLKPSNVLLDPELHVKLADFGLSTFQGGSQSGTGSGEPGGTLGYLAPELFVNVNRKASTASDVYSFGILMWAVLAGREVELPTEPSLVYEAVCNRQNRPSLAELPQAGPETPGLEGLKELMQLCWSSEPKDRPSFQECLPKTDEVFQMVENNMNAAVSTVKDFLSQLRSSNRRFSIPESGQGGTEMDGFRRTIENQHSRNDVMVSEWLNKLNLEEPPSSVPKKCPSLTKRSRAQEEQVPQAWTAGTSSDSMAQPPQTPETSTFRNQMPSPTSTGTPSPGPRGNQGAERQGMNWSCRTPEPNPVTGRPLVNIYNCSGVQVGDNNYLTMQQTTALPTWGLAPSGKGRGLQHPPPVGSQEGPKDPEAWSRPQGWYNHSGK
Ephrin type-A receptor 5, sequence (P54756 whole entry): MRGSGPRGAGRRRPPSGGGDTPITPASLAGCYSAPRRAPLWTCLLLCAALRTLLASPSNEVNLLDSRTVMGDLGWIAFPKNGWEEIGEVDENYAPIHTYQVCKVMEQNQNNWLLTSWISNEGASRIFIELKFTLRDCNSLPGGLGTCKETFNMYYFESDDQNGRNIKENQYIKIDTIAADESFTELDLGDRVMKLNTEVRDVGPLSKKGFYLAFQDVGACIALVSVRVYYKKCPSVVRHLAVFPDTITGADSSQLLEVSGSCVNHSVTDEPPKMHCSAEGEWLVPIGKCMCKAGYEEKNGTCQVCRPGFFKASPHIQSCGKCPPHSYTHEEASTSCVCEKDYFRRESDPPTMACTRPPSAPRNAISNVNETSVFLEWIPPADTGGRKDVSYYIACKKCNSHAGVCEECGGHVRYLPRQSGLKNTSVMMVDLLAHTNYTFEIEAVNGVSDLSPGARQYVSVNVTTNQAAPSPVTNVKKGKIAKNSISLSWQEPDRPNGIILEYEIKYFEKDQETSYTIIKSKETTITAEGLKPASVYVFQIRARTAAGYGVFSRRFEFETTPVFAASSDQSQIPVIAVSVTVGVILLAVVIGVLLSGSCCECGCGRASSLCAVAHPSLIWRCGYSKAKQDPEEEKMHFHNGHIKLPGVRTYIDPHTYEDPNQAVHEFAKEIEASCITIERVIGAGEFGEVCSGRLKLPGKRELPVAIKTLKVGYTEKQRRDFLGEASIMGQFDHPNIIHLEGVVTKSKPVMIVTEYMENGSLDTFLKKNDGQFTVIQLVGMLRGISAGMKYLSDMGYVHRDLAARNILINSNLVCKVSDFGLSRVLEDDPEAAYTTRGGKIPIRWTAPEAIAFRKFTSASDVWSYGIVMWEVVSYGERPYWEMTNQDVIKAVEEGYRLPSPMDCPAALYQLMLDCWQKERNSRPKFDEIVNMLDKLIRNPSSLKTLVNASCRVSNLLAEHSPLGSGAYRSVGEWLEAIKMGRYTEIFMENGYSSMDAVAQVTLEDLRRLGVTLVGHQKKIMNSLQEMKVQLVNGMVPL
Ribosomal protein S6 kinase beta-1, sequence (P23443 whole entry): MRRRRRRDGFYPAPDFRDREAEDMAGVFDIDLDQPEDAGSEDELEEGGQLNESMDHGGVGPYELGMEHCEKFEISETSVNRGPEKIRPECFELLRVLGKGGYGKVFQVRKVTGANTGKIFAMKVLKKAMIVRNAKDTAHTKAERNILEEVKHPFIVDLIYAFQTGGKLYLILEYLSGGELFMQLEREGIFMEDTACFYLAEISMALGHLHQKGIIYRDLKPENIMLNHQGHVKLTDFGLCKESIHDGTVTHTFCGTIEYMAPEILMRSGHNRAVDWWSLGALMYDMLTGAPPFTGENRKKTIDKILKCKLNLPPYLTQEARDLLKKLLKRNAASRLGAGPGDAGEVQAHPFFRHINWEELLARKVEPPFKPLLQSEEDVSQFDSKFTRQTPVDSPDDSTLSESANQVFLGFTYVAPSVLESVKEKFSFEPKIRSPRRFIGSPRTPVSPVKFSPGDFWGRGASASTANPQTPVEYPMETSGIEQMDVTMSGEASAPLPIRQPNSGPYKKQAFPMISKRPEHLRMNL

| Compound | Kd [1] | Kd [2] | Kd [3] | Kd [4] | Kd [5] | Kd [6] | Kd (Ephrin type-A receptor 7) | Kd [7] | Kd [8] | Kd (Ephrin type-A receptor 5) | Kd [9] | Kd (Adenosine kinase) | Kd (Septin-9) | Kd [10] |
| --- | --- | --- | --- | --- | --- | --- | --- | --- | --- | --- | --- | --- | --- | --- |
| Cc1nc2cc(-c3nn(C(C)C)c4ncnc(N)c34)ccc2o1 | 2.38 µM (active) | 3.01 µM (active) | > 30 µM (inactive) | > 30 µM (inactive) | > 30 µM (inactive) | > 30 µM (inactive) | > 30 µM (inactive) | > 30 µM (inactive) | > 30 µM (inactive) | > 30 µM (inactive) | > 30 µM (inactive) | > 30 µM (inactive) | > 30 µM (inactive) | > 30 µM (inactive) |
| COCc1c(-c2ccc(NC(=O)Nc3cc(C(F)(F)F)ccc3F)c(F)c2)c2c(N)ncnn2c1CN1CCOCC1 | > 30 µM (inactive) | > 30 µM (inactive) | > 30 µM (inactive) | > 30 µM (inactive) | > 30 µM (inactive) | > 30 µM (inactive) | > 30 µM (inactive) | > 30 µM (inactive) | > 30 µM (inactive) | > 30 µM (inactive) | > 30 µM (inactive) | > 30 µM (inactive) | > 30 µM (inactive) | > 30 µM (inactive) |
| Cc1nc(NC(=O)N2CCC[C@H]2C(N)=O)sc1-c1ccnc(C(C)(C)C(F)(F)F)c1 [ALPELISIB] | > 30 µM (inactive) | > 30 µM (inactive) | > 30 µM (inactive) | > 30 µM (inactive) | > 30 µM (inactive) | > 30 µM (inactive) | > 30 µM (inactive) | > 30 µM (inactive) | > 30 µM (inactive) | > 30 µM (inactive) | > 30 µM (inactive) | > 30 µM (inactive) | > 30 µM (inactive) | > 30 µM (inactive) |
| Cc1csc(-c2nnc(Nc3ccc(Oc4ncccc4-c4ccnc(N)n4)cc3)c3ccccc23)c1 [AMG-900] | > 30 µM (inactive) | 3.31 µM (active) | 2.38 µM (active) | > 30 µM (inactive) | > 30 µM (inactive) | > 30 µM (inactive) | > 30 µM (inactive) | > 30 µM (inactive) | > 30 µM (inactive) | > 30 µM (inactive) | > 30 µM (inactive) | > 30 µM (inactive) | > 30 µM (inactive) | > 30 µM (inactive) |
| O=C(Nc1c[nH]nc1-c1nc2cc(CN3CCOCC3)ccc2[nH]1)NC1CC1 [AT-9283] | > 30 µM (inactive) | > 30 µM (inactive) | > 30 µM (inactive) | > 30 µM (inactive) | > 30 µM (inactive) | 0.117 µM (active) | 0.008 µM (active) | 0.801 µM (active) | > 30 µM (inactive) | > 30 µM (inactive) | > 30 µM (inactive) | > 30 µM (inactive) | > 30 µM (inactive) | > 30 µM (inactive) |
| C=CC(=O)Nc1cc2c(Nc3ccc(F)c(Cl)c3)ncnc2cc1C#CC(C)(C)N1CCN(C)CC1 [AV-412 FREE BASE] | > 30 µM (inactive) | > 30 µM (inactive) | > 30 µM (inactive) | > 30 µM (inactive) | > 30 µM (inactive) | > 30 µM (inactive) | > 30 µM (inactive) | > 30 µM (inactive) | > 30 µM (inactive) | > 30 µM (inactive) | > 30 µM (inactive) | > 30 µM (inactive) | > 30 µM (inactive) | > 30 µM (inactive) |
| COc1cc([C@@H]2c3cc4c(cc3[C@H](O)[C@H]3COC(=O)[C@@H]23)OCO4)cc(OC)c1OC [AXL-1717] | > 30 µM (inactive) | > 30 µM (inactive) | > 30 µM (inactive) | > 30 µM (inactive) | > 30 µM (inactive) | > 30 µM (inactive) | > 30 µM (inactive) | > 30 µM (inactive) | > 30 µM (inactive) | > 30 µM (inactive) | > 30 µM (inactive) | > 30 µM (inactive) | > 30 µM (inactive) | > 30 µM (inactive) |
| Cn1cnc2c(F)c(Nc3ccc(Br)cc3F)c(C(=O)NOCCO)cc21 [BINIMETINIB] | > 30 µM (inactive) | 0.045 µM (active) | > 30 µM (inactive) | > 30 µM (inactive) | > 30 µM (inactive) | > 30 µM (inactive) | > 30 µM (inactive) | > 30 µM (inactive) | > 30 µM (inactive) | > 30 µM (inactive) | > 30 µM (inactive) | > 30 µM (inactive) | > 30 µM (inactive) | > 30 µM (inactive) |
| CCn1c(C(=O)N(C2CC2)C2CC2)cc2c3c(ncn3C)c(Nc3cc(C)n(C)n3)nc21 [BMS-911543] | > 30 µM (inactive) | > 30 µM (inactive) | > 30 µM (inactive) | > 30 µM (inactive) | > 30 µM (inactive) | > 30 µM (inactive) | > 30 µM (inactive) | > 30 µM (inactive) | > 30 µM (inactive) | > 30 µM (inactive) | > 30 µM (inactive) | > 30 µM (inactive) | > 30 µM (inactive) | > 30 µM (inactive) |
| COc1cc2ncnc(Oc3cccc(NC(=O)Nc4cc(C(C)(C)C(F)(F)F)on4)c3)c2cc1OC [CEP-32496] | 0.245 µM | > 30 µM (inactive) | > 30 µM (inactive) | > 30 µM (inactive) | > 30 µM (inactive) | > 30 µM (inactive) | > 30 µM (inactive) | > 30 µM (inactive) | > 30 µM (inactive) | 0.401 µM | > 30 µM (inactive) | > 30 µM (inactive) | > 30 µM (inactive) | > 30 µM (inactive) |
| CC(C)c1cc(CNc2nc(Nc3cc(C4CC4)[nH]n3)cc(N3CCN(C)CC3)n2)on1 [XL-228] | > 30 µM (inactive) | 7.03 µM | > 30 µM (inactive) | > 30 µM (inactive) | > 30 µM (inactive) | > 30 µM (inactive) | 0.017 µM (active) | 0.184 µM | > 30 µM (inactive) | 0.081 µM (active) | > 30 µM (inactive) | – | > 30 µM (inactive) | > 30 µM (inactive) |
